This is an account of results in patent US20200163880A1, “CATIONIC LIPOSOMES” (DANMARKS TEKNISKE UNIVERSITET, priority 2017, published 2020).

“Also recorded” adds a separate entry of the source.

One data set deals with Balb c mice. As to the method: Balb c mice were injected intravenously with 200 nmol/mouse of the free 1v270 compound, the Cationic PEG 1v270 Lip formulation and the Cationic 1v270 Lip formulation. […] The AUC values calculated for each cytokine were used to determine I) the Toxicity Prediction with the IL-6/IFNα and IL-6/IL-12p70 ratios, and J) the immunogenicity score by the IFNα/IL-10 and IL-12p70/IL-10 ratios shown in arbitrary units. (n=5 mice/group, Students T-test was used, *p<0.05, **p<0.01, *** p<0.005, ns=non significant, error bars show SE).

The test system of data set [1] is whole blood from healthy human donors. Briefly: Cytokine secretion in ex vivo human whole blood (ELISA, 24 h). Format: cell-based. The conditions noted are these: 24 h incubation. As to the method:
Induction of cytokines from whole blood after treatment and incubation for 24 h. For all figures statistical analyses was made using students T-test, *p<0.05, **p<0.01, ***p<0.005, n=8-10. Test samples were the free TLR7 agonist 1v270 (1v270), the PEGylated cationic formulation with the immune stimulating 1v270 TLR7 agonist (Cationic PEG 1v270 Lip), a non-targeting neutral PEGylated liposome with 1v270 TLR7 agonist (Neutral PEG 1v270 Lip) and a non-PEGylated cationic formulation with 1v270 (Cationic 1v270 Lip). Composition and properties can be seen in Table 1. RPMI is control sample only with addition of media and DMSO is a vehicle control as solvent for 1v270.
For targeting a liposome to monocytes and antigen presenting cells (APCs) for use in cancer immunotherapy, it is key to boost an appropriate immune response. To analyze this we examined the ability of TLR7 agonist containing liposomes to induce cytokine secretion after targeting as shown in FIG. 2 and example 4, after another 24 h incubation. […]
To determine the optimal content of 1v270 in cationic PEGylated liposomes, liposomes were prepared with 0, 1, 2.5, 5 and 7.5% 1v270 content. […] The liposomes were incubated as described in example 5 and cytokine secretion of anti-tumor cytokines IL-12p70 and IFNα was measured.

On to `CCCCCCCC/C=C\CCCCCCCC(=O)OCC(COP(=O)(O)OCCNC(=O)c1ccc(Cn2c(=O)[nH]c3c(N)nc(OCCOC)nc32)cc1)OC(=O)CCCCCCC/C=C\CCCCCCCC` (stereo not shown) [1v270, 2-(4-((6-amino-2-(2-methoxyethoxy)-8-oxo-7H-purin-9(8H)-yl)methyl)benzamido)ethyl 2,3-bis(oleoyloxy)propyl phosphate], for which the “higher toxicity prediction than the cationic PEG 1v270 Lip” value in the data set on Balb c mice (AUC ratios, FIG. 4I, ratio not given) is reported as 8 fold. The “induction of IFNα in mouse plasma” value in the data set on Balb c mice (iv, 200 nmol/mouse, 2, 6 and 24 h) is given as “unable to induce IFNα at all; also recorded: no IFNα was measured”. In data set [1] (FIG. 3C), the “secretion of IL-6” value is listed as “highest; also recorded: most potent”. Besides, the “secretion of IL-10” value in data set [1] (FIG. 3D) is reported as “significantly higher levels”.
